Data taken from the NIST ThermoML archive (doi:10.1016/j.tca.2012.08.011).

Experiment: xn = mol fraction of the nth substance listed
Settings: 101 kPa, Liquid; for speed of sound: Linear variable-path acoustic interferometer; for mass density: Vibrating tube method

NC1CCCCC1 [cyclohexylamine] + C1CCCCC1
Settings	mass density, 293.15 K [kg/m3]	mass density, 298.15 K [kg/m3]	mass density, 303.15 K [kg/m3]	speed of sound, 293.15 K [m/s]	speed of sound, 298.15 K [m/s]	speed of sound, 303.15 K [m/s]	speed of sound, 308.15 K [m/s]
x1 = 0.0545	782.87	778.17	773.44	1282.7	1257.9	1233.6	1209.3
x1 = 0.1032	786.84	782.14	777.42	1287.2	1262.6	1238.1	1213.9
x1 = 0.1514	790.9	786.2	781.48	1291.9	1267.6	1243.5	1219.6
x1 = 0.204	795.42	790.73	786.03	1298	1273.8	1249.7	1225.8
x1 = 0.2496	799.41	794.7	790.01	1303.5	1279.4	1255.4	1231.6
x1 = 0.3052	804.34	799.64	794.94	1310.7	1286.8	1263.2	1239.7
x1 = 0.3467	808.08	803.36	798.67	1316.6	1293	1269	1245.6
x1 = 0.3967	812.57	807.88	803.19	1323.8	1300.2	1276.7	1253.5
x1 = 0.4025	813.08	808.4	803.71	1324.5	1300.9	1277.4	1254.4
x1 = 0.4478	817.22	812.54	807.85	1331.2	1307.8	1284.4	1261.5
x1 = 0.4992	821.91	817.25	812.59	1339.2	1315.9	1292.7	1269.9
x1 = 0.5538	826.9	822.24	817.57	1348.3	1325	1301.8	1279
x1 = 0.6495	835.66	831.02	826.37	1364.5	1341.3	1318.5	1295.7
x1 = 0.6996	840.25	835.61	830.97	1373.5	1350.4	1327.6	1305
x1 = 0.7535	845.15	840.54	835.93	1383.2	1360.5	1337.7	1315.5
x1 = 0.8071	850.03	845.43	840.82	1393	1370.4	1347.9	1325.6
x1 = 0.8555	854.41	849.81	845.22	1402.2	1379.6	1357.2	1334.9
x1 = 0.8959	858.06	853.48	848.9	1410.1	1387.7	1365.3	1343.1
x1 = 0.9501	862.93	858.37	853.81	1420.6	1398.5	1376.5	1354.7
x1 = 1	867.39	862.85	858.31	1430.5	1408.8	1387.3	1366
